Assay results published in article PMC3000800 (Bioorganic & medicinal chemistry letters, 2010).

Key:
[1] = molecular target: native α7 nAChR in rat brain membranes (Rattus norvegicus, UniProt Q05941); assay: biochemical; type: binding; settings: for inhibition at 10 µM: read-out: Percent binding/inhibition, α7 receptor (selectivity study)
[2] = tested on: DFP-induced seizure-like behaviors; settings: mouse, in vivo
[3] = male, C57Bl/6, mouse, in vivo, ip, 10 mg/kg
muscle-type nAChR = muscle-type nAChR (Homo sapiens, UniProt P02708+P07510+Q07001); type: binding
neuronal α4β2 nAChRs = neuronal α4β2 nAChRs (Rattus norvegicus, UniProt P09483+P12390); assay: biochemical; settings: read-out: Percent binding/inhibition, neuronal α4β2
human α7 nAChR = human α7 nAChR (Homo sapiens, UniProt P36544); assay: cell-based
human 5HT3 receptor = molecular target: T1, human 5HT3 receptor (Homo sapiens, UniProt P46098); assay: biochemical; settings: read-out: Percent binding/inhibition, 5HT3 receptor
T1 sequence (P46098 24-478): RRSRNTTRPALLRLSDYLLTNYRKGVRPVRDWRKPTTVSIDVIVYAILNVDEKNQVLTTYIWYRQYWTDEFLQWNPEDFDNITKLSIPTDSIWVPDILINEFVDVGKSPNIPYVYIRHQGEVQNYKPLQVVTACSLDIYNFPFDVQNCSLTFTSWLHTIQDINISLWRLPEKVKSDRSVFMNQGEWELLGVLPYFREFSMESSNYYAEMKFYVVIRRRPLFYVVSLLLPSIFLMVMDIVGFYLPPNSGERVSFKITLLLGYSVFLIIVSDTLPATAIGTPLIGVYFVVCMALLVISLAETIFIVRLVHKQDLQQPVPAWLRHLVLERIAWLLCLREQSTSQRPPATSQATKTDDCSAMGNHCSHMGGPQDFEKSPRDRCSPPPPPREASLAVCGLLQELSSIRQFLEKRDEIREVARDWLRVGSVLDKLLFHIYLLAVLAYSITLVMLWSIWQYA

native α7 nAChR in rat brain membranes, sequence (Q05941 23-502): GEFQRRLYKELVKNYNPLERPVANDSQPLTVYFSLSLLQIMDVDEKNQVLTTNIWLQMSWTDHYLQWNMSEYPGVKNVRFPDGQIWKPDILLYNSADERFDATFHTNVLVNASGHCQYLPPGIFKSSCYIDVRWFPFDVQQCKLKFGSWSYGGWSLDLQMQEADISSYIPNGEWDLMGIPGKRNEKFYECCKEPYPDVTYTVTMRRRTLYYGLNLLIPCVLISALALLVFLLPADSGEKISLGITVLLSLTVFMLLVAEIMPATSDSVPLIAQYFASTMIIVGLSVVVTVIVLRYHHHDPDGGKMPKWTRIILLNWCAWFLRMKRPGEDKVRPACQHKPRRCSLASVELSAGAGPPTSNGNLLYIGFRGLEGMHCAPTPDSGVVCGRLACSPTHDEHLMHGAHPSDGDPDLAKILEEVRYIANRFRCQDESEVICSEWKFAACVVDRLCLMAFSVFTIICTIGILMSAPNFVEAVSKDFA
neuronal α4β2 nAChRs, sequence (P09483 31-630): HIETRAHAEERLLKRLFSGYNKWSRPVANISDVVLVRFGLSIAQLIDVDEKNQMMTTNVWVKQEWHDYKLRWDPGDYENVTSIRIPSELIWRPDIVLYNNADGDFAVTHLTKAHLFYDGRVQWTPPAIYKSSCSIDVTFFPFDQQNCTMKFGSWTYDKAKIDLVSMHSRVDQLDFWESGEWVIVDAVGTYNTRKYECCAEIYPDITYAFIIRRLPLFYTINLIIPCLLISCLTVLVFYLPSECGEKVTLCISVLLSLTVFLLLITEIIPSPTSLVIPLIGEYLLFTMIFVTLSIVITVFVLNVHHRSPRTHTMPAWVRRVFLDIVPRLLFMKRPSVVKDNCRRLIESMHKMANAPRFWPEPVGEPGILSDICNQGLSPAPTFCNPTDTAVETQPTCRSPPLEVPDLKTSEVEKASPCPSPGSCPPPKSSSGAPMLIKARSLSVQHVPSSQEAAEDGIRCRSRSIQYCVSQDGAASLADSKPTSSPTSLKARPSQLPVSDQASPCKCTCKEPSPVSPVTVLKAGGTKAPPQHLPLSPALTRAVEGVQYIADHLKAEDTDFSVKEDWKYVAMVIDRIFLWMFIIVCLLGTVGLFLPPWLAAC
neuronal α4β2 nAChRs, sequence (P12390 25-500): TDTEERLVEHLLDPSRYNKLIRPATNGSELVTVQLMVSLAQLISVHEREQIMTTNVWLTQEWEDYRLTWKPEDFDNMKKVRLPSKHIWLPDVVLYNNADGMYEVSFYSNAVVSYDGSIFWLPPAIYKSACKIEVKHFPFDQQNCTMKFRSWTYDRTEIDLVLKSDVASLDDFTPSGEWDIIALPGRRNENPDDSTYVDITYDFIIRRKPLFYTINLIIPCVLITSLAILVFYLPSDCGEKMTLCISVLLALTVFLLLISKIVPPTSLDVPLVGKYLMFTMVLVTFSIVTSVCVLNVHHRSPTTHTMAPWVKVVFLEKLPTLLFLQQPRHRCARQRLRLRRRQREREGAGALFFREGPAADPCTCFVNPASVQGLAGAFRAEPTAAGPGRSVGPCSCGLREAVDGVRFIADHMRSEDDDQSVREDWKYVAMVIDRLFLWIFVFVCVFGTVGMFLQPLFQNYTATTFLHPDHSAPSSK
muscle-type nAChR, sequence (P02708 21-457): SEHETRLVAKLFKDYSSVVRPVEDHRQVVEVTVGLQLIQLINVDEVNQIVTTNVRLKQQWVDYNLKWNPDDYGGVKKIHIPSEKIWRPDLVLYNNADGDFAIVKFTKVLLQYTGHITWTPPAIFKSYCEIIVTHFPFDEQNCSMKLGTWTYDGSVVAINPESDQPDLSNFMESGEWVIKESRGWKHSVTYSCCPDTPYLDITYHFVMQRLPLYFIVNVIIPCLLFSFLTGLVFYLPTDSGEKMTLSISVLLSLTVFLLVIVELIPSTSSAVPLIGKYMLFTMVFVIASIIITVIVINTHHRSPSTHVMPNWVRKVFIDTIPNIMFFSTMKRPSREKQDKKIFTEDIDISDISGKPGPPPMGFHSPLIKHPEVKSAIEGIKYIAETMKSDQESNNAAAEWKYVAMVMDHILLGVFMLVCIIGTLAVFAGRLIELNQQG
muscle-type nAChR, sequence (P07510 23-517): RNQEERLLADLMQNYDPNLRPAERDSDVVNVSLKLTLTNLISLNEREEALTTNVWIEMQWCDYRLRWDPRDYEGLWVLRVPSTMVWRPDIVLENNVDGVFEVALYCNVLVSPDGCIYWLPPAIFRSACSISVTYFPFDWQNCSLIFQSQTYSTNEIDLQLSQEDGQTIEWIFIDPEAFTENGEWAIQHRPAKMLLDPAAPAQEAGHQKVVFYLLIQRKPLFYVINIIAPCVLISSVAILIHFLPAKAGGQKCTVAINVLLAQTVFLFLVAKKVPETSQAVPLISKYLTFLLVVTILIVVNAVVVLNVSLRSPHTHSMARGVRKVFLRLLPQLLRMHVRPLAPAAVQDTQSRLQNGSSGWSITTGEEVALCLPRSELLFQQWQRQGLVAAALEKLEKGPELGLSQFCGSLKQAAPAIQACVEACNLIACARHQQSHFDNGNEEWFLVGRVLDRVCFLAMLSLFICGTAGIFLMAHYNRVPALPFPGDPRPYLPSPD
muscle-type nAChR, sequence (P11230 24-501, further chain): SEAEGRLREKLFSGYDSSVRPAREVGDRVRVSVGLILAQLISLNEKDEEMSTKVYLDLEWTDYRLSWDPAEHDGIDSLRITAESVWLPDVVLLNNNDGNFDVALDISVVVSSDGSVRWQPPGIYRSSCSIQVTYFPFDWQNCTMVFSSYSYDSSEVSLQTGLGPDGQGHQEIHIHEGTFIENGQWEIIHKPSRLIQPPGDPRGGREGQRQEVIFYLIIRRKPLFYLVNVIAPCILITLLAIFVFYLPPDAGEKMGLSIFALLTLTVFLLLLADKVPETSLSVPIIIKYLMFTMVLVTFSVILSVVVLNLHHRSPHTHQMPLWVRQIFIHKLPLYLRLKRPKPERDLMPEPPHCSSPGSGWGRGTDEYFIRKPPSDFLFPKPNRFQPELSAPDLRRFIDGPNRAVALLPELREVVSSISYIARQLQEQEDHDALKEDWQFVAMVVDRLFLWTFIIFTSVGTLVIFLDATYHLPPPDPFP
muscle-type nAChR, sequence (Q07001 22-517): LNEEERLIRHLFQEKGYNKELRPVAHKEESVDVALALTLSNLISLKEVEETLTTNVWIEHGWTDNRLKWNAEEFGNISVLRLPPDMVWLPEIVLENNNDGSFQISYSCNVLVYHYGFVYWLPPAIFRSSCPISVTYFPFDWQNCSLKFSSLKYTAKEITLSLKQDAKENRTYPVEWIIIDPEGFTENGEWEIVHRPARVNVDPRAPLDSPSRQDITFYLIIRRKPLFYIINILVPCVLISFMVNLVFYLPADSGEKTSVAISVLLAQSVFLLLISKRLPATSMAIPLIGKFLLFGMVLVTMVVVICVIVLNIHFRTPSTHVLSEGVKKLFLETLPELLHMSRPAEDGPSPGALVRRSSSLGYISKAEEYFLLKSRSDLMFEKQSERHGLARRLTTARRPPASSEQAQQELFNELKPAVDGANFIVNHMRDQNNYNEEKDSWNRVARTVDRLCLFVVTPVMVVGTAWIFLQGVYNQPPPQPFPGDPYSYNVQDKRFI
human α7 nAChR, sequence (P36544 23-502): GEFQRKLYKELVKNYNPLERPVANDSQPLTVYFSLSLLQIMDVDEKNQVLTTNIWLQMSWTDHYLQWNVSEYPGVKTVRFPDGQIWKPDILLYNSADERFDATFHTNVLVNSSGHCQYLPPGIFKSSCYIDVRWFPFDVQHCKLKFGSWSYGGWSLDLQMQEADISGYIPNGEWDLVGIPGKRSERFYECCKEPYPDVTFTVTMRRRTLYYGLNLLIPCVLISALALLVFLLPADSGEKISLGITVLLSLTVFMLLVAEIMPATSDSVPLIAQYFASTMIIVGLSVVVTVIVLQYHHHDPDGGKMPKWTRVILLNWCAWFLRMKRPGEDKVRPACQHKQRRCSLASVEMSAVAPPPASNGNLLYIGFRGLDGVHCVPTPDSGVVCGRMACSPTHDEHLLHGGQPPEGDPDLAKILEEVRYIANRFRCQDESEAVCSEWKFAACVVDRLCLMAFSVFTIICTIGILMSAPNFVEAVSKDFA

| SMILES | binding affinity to the α7 nAChR (in words) [1] | Normalized % neuroprotection [2] [%] | Normalized % seizure [2] [%] | Seizure score (mean ± SD) [2] | concentration in brain [3] [µM] | binding to the muscle-type nAChR (muscle-type nAChR) | IC50 [1] [µM] | inhibition at 10 µM [1] [%] | inhibition at 10 µM (neuronal α4β2 nAChRs) [%] | IC50 (human α7 nAChR) [µM] | inhibition at 10 µM (human 5HT3 receptor) [%] |
| --- | --- | --- | --- | --- | --- | --- | --- | --- | --- | --- | --- |
| CCCc1c(C(=O)NC2CCN(C)CC2)cnn1-c1ccccc1 [8h] | completely abolished the binding affinity | – | – | – | – | – | – | – | – | – | – |
| CCCc1c(C(=O)NC2CCNCC2)cnn1-c1ccccc1 [8i] | completely abolished the binding affinity | – | – | – | – | – | – | – | – | – | – |
| CCCc1c(C(=O)NC2CCN(Cc3ccccc3)CC2)cnn1-c1ccccc1 [compound 8] | – | 91.2 | 8.8 | 0.8 ± 1.3 | 9 | no detectable binding | 2.9 | 82.5 | 1.3 | 18.9 | 14.3 |
| O=C(NCC1CCN(Cc2ccccc2)CC1)c1cn(Cc2cccc(Cl)c2)nn1 [compound 7] | – | – | – | – | – | no detectable binding | – | 82.5 | 18.8 | – | 8.4 |
| CN(CC1CCN(Cc2ccccc2)CC1)C(=O)c1cn(Cc2ccccc2Cl)nn1 [compound 7i] | – | 93.4 | 6.6 | 0.6 ± 1.3 | – | – | – | – | – | 3.8 | – |
